Laboratory results published in US20230183237A1, “COMPETITIVE AND NONCOMPETITIVE INHIBITORS OF THE MUSCARINIC ACETYLCHOLINE RECEPTOR M5” (Vanderbilt University, priority 2020, published 2023).
Where two headings read alike, the source gives them in different places.

Biological target: T1, hM5 (Homo sapiens, UniProt P08912)
T1 construct: expressed in transfected cells
T1 sequence (P08912 1-532): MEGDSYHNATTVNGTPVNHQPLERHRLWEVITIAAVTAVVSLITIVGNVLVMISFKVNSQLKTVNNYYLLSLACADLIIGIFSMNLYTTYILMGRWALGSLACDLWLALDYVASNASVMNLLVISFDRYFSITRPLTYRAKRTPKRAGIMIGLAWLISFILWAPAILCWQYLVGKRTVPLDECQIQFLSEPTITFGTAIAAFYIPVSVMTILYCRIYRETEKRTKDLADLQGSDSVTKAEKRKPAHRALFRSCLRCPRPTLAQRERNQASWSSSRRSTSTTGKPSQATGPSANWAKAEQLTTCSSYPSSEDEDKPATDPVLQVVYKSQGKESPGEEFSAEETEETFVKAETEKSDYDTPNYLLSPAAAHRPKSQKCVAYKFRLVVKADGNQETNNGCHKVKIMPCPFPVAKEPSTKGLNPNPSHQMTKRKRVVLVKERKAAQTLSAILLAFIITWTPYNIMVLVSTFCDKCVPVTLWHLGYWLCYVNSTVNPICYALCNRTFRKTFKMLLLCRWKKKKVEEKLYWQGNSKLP
Test: Calcium mobilization concentration-response (IC50 vs EC80 acetylcholine), CHO hM5
Type: cell-based
Conditions: CELL LINE hM5, read-out: IC50
In short: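 IC50 values derive from percent maximal acetylcholine response after an EC80 ACh addition, measured as kinetic calcium fluorescence (static ratio, max−min). Test compounds were added 140 s before agonist. Cells: stable hM5-CHO in HEPES-buffered HBSS with 2.5 mM probenecid, pH 7.4; ≥3 independent triplicate determinations.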

[1] = calcium mobilization, EC80 acetylcholine addition

IC50 [1] [nM] | IC50 (vs EC80 acetylcholine) [nM] | Structure (SMILES)
– | 9 | Cc1cc(N(C)C)ncc1C1CCN(S(=O)(=O)c2cnn(C)c2C)CC1 [Compound 550, 5-(1-((1,5-dimethyl-1H-pyrazol-4-yl)sulfonyl)piperidin-4-yl)-N,N,4-trimethylpyridin-2-amine]
– | 1360 | Cc1cc2ncccc2cc1C1CCN(S(=O)(=O)c2c(Cl)nn3ccccc23)CC1 [Compound 447, 6-(1-((2-chloropyrazolo[1,5-a]pyridin-3-yl)sulfonyl)piperidin-4-yl)-7-methylquinoline]
– | 235 | Cc1c(C2CCN(S(=O)(=O)c3cn(C)nn3)CC2)cn2ncnc2c1F [Compound 558, 8-fluoro-7-methyl-6-(1-((1-methyl-1H-1,2,3-triazol-4-yl)sulfonyl)piperidin-4-yl)-[1,2,4]triazoto[1,5-a]pyridine]
– | 26 | Cc1cc2nccnc2cc1C1CCN(S(=O)(=O)c2cnn3c2OCCC3)CC1 [Compound 426, 3-((4-(7-methylquinoxalin-6-yl)piperidin-1-yl)sulfonyl)-6,7-dihydro-5H-pyrazolo[5,1-b][1,3]oxazine]
– | 1990 | Cc1cc2ncccc2cc1C1CCN(S(=O)(=O)c2cnn3cccnc23)CC1 [Compound 448, 7-methyl-6-(1-(pyrazolo[1,5-a]pyrimidin-3-ylsulfonyl)piperidin-4-yl)quinoline]
2510 | – | Cc1cc(C(F)(F)F)ncc1C1CCN(S(=O)(=O)c2cnn(C)c2C)CC1 [Compound 394, 5-(1-((1,5-dimethyl-1H-pyrazol-4-yl)sulfonyl)piperidin-4-yl)-4-methyl-2-(trifluoromethyl)pyridine]
– | > 10000 | Cc1ncc(S(=O)(=O)N2CCC(c3ccncc3C)CC2)s1 [Compound 430, 2-methyl-5-((4-(3-methylpyridin-4-yl)piperidin-1-yl)sulfonyl)thiazole]
– | 3100 | Cn1nc(-c2ccco2)cc1C1CCN(S(=O)(=O)c2cnn(C)c2Cl)CC1 [Compound 590, 1-((5-Chloro-1-methyl-1H-pyrazol-4-yl)sulfonyl)-4-(3-(furan-2-yl)-1-methyl-1H-pyrazol-5-yl)piperidine]
– | 1710 | Cc1c(C2CCN(S(=O)(=O)c3nncn3C)CC2)cn2ncnc2c1F [Compound 542, 8-fluoro-7-methyl-6-(1-((4-methyl-4H-1,2,4-triazol-3-yl)sulfonyl)piperidin-4-yl)-[1,2,4]triazolo[1,5-a]pyridine]
– | 6 | COc1c(S(=O)(=O)N2CCC(c3cn4ncnc4cc3Cl)CC2)cnn1C [Compound 575, 7-chloro-6-(1-((5-methoxy-1-methyl-1H-pyrazol-4-yl)sulfonyl)piperidin-4-yl)-[1,2,4]triazolo[1,5-a]pyridine]
– | 14 | Cc1cc2ncnn2cc1C1CCN(S(=O)(=O)c2cnc3sccn23)CC1 [Compound 526, 5-((4-(7-methyl-[1,2,4]triazolo[1,5-a]pyridin-6-yl)piperidin-1-yl)sulfonyl)imidazo[2,1-b]thiazole]
– | 181 | Cc1cc(S(=O)(=O)N2CCC(F)(c3cn4ncnc4cc3C)CC2)sn1 [Compound 561, 5-((4-fluoro-4-(7-methyl-[1,2,4]triazolo[1,5-a]pyridin-6-yl)piperidin-1-yl)sulfonyl)-3-methylisothiazole]
– | > 10000 | COCC(=O)NCc1c(S(=O)(=O)N2CCC(c3cn4ncnc4cc3F)CC2)cnn1C [Compound 553, N-((4-((4-(7-fluoro-[1,2,4]triazoto[1,5-a]pyridin-6-yl)piperidin-1-yl)sulfonyl)-1-methyl-1H-pyrazol-5-yl)methyl)-2-methoxyacetamide]
– | 59 | Cn1ncc(S(=O)(=O)N2CCC(c3cn4ncnc4cc3C(F)(F)F)CC2)c1C#N [Compound 409, 1-methyl-4-((4-(7-(trifluoromethyl)-[1,2,4]triazolo[1,5-a]pyridin-6-yl)piperidin-1-yl)sulfonyl)-1H-pyrazole-5-carbonitrile]
– | 37 | COc1nn(C)c(I)c1S(=O)(=O)N1CCC(c2cn3ncnc3cc2Cl)CC1 (single isomer, unassigned) [Compound 626, 7-chloro-6-(1-((5-iodo-3-methoxy-1-methyl-1H-pyrazol-4-yl)sulfonyl)piperidin-4-yl)-[1,2,4]triazolo[1,5-a]pyridine]

Second part, the compound before the results:

Structure (SMILES) | IC50 [1] [nM] | IC50 (vs EC80 acetylcholine) [nM]
Cc1nc(C)c(S(=O)(=O)N2CCC(c3nn4ncnc4cc3C)CC2)s1 [Compound 215, 2,4-dimethyl-5-((4-(7-methyl-[1,2,4]triazolo[1,5-b]pyridazin-6-yl)piperidin-1-yl)sulfonyl)thiazole] | > 10000 | –
Cc1cc(C#N)cnc1C1=CCN(S(=O)(=O)c2ccc3c(c2)CCO3)CC1 [Compound 210, 1′-((2,3-dihydrobenzofuran-5-yl)sulfonyl)-3-methyl-1′,2′,3′,6′-tetrahydro-[2,4′-bipyridine]-5-carbonitrile] | > 10000 | –
Cc1c(S(=O)(=O)N2CC=C(c3cn4ncnc4c(F)c3F)CC2)cnn1C [Compound 379, 6-(1-((1,5-dimethyl-1H-pyrazol-4-yl)sulfonyl)-1,2,3,6-tetrahydropyridin-4-yl)-7,8-difluoro-[1,2,4]triazolo[1,5-a]pyridine] | 243 | –
Cc1cc2ncnn2nc1C1=CCN(S(=O)(=O)c2ccc3c(c2)N(C)CCO3)CC1 [Compound 170, 4-methyl-6-((4-(7-methyl-[1,2,4]triazolo[1,5-b]pyridazin-6-yl)-3,6-dihydropyridin-1(2H)-yl)sulfonyl)-3,4-dihydro-H-benzo[b][1,4]oxazine] | > 10000 | –
Cc1c(S(=O)(=O)N2CC=C(c3cnc4ncnn4c3C)CC2)cnn1C [Compound 243, 6-(1-((1,5-dimethyl-1H-pyrazol-4-yl)sulfonyl)-1,2,3,6-tetrahydropyridin-4-yl)-7-methyl-[1,2,4]triazolo[1,5-a]pyrimidine] | > 10000 | –
Cc1cc2c(cc1S(=O)(=O)N1CCC(c3nn4ncnc4cc3C)CC1)OCO2 [Compound 183, 7-methyl-6-(1-((6-methylbenzo[d][1,3]dioxol-5-yl)sulfonyl)piperidin-4-yl)-[1,2,4]triazolo[1,5-b]pyridazine] | > 10000 | –
Cc1nn(C)c(Cl)c1S(=O)(=O)N1CCC(c2cn3ncnc3c(F)c2C)CC1 [Compound 318, 6-(1-((5-chloro-1,3-dimethyl-1H-pyrazol-4-yl)sulfonyl)piperidin-4-yl)-8-fluoro-7-methyl-[1,2,4]triazolo[1,5-a]pyridine] | 15 | –
Cc1c(S(=O)(=O)N2CCC(c3cn4ncnc4cc3C(F)(F)F)CC2)c(Cl)nn1C [Compound 341, 6-(1-((3-chloro-1,5-dimethyl-1H-pyrazol-4-yl)sulfonyl)piperidin-4-yl)-7-(trifluoromethyl)-[1,2,4]triazolo[1,5-a]pyridine] | 113 | –
Cc1c(C2=CCN(S(=O)(=O)c3cnn(C)c3C)CC2)cn2ncnc2c1Cl [Compound 380, 8-chloro-6-(1-((1,5-dimethyl-1H-pyrazol-4-yl)sulfonyl)-1,2,3,6-tetrahydropyridin-4-yl)-7-methyl-[1,2,4]triazolo[1,5-a]pyridine] | 37 | –
Cc1cc2ncnn2nc1C1CCN(S(=O)(=O)c2cnn(C)c2C(F)(F)F)CC1 [Compound 177, 7-methyl-6-(1-((1-methyl-5-(trifluoromethyl)-1H-pyrazol-4-yl)sulfonyl)piperidin-4-yl)-[1,2,4]triazolo[1,5-b]pyridazine] | > 10000 | –
Cc1c(C2CCN(S(=O)(=O)c3cnn(C)c3C(F)(F)F)CC2)cn2ncnc2c1F [Compound 347, 8-fluoro-7-methyl-6-(1-((1-methyl-5-(trifluoromethyl)-1H-pyrazol-4-yl)sulfonyl)piperidin-4-yl)-[1,2,4]triazolo[1,5-a]pyridine] | 360 | –
O=S(=O)(c1ccc2c(c1)CCO2)N1CCC(c2ccc3occc3n2)CC1 [Compound 28, 5-(1-((2,3-dihydrobenzofuran-5-yl)sulfonyl)piperidin-4-yl)furo[3,2-b]pyridine] | > 10000 | –
Cc1cc2ncnn2nc1C1CCN(S(=O)(=O)c2cnc(C)n2C)CC1 [Compound 216, 6-(1-((1,2-dimethyl-1H-imidazol-5-yl)sulfonyl)piperidin-4-yl)-7-methyl-[1,2,4]triazolo[1,5-b]pyridazine] | 689 | –
COc1cc2ncnn2cc1C1CCN(S(=O)(=O)c2cc3c(cc2C)OCC3C)CC1 (centres unmarked) [Compound 88, 6-(1-((3,6-dimethyl-2,3-dihydrobenzofuran-5-yl)sulfonyl)piperidin-4-yl)-7-methoxy-[1,2,4]triazolo[1,5-a]pyridine] | 804 | –
O=S(=O)(c1ccc(Cl)nc1)N1CCC(c2cn3ncnc3cc2C(F)(F)F)CC1 [Compound 112, 6-(1-((6-chloropyridin-3-yl)sulfonyl)piperidin-4-yl)-7-(trifluoromethyl)-[1,2,4]triazolo[1,5-a]pyridine] | > 10000 | –
CCc1cc2ncnn2cc1C1=CCN(S(=O)(=O)c2cnn(C)c2C)CC1 [Compound 194, 6-(1-((1,5-dimethyl-1H-pyrazol-4-yl)sulfonyl)-1,2,3,6-tetrahydropyridin-4-yl)-7-ethyl-[1,2,4]triazolo[1,5-a]pyridine] | 55 | –
CN1CCOc2cc(C3=CCN(S(=O)(=O)c4cnn(C)c4Cl)CC3)c(Cl)cc21 [Compound 377, 6-chloro-7-(1-((5-chloro-1-methyl-1H-pyrazol-4-yl)sulfonyl)-1,2,3,6-tetrahydropyridin-4-yl)-4-methyl-3,4-dihydro-2H-benzo[b][1,4]oxazine] | 1430 | –
